Data reported in patent US20210115104A1, “AMYLIN ANALOGUES” (Zealand Pharma A/S, priority 2015, published 2021).
*1 amine or outer side, *2 acyl side, *3 side chain or, on linkers, in order; H or OH if unused. Where a SMILES comes first, the peptide text is derived from it. Bridges are numbered along the chain shown (N, C = ends). [ ]: non-standard residue; d: D form. The star is where a group is joined. C20 diacid = O=C(O)CCCCCCCCCCCCCCCCCCC(=O)*; γGlu = O=C(O)[C@H](CCC(=O)[*:2])N[*:1]; Hyp = O=C(O)[C@@H]1C[C@@H](O)CN1; NMeI = CC[C@H](C)[C@H](NC)C(=O)O; Aad = N[C@@H](CCCC(=O)O)C(=O)O; Sar = CNCC(=O)O

Assays:
[1] = Assessment of chemical stability (RP-HPLC normalized purity); assay type: physicochemical; details: 7 days, 40° C., Table 1; for Normalized purity after 7 days, 40° C., pH 4: pH 4, 0.2 mg/ml; for Normalized purity after 7 days, 40° C., pH 7.5: pH 7.5, 0.2 mg/ml; for Normalized purity after 7 days, 40° C., pH 9: pH 9, 0.2 mg/ml; for Normalized purity after 7 days, 40° C., pH 6: pH 6, 0.2 mg/ml
In short: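 Purity after 7 days at 40° C is expressed relative to T=0 (set to 100) for each pH. Samples at 0.2 mg/ml, pH 4, 6, 7.5 or 9, analyzed by RP-HPLC with UV 220 nm on C8 (ammonium formate) or C18 (TFA) gradients.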

[2] = target: T1, human amylin receptor 3 (hAMYR3), hCTR2 co-expressed with hRAMP3 (Homo sapiens, UniProt O60896+P30988); experiment: hAMYR3 cAMP assay (AlphaScreen) in COS7 cells; assay type: cell-based; details: cAMP induction, COS7 cells expressing hAMYR3; Table 1; read-out: hAMYR3 EC50
T1 construct: expressed in transfected cells
T1 sequence (P30988 25-474): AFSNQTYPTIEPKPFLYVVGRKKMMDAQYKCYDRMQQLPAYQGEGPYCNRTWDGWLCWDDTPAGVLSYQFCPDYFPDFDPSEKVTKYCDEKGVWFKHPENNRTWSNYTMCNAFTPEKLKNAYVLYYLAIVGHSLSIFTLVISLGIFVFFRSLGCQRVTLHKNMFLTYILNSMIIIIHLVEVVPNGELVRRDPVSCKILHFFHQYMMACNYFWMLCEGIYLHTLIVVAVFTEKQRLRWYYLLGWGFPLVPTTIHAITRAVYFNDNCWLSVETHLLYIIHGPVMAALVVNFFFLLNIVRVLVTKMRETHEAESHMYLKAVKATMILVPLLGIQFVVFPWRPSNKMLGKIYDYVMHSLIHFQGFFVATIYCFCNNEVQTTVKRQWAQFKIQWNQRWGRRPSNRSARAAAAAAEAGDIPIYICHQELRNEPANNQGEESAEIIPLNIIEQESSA
T1 sequence (O60896 24-148 partner): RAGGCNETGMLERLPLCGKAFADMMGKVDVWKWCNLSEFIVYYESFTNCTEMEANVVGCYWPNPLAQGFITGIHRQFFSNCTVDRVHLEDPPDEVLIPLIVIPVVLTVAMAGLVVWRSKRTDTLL
In short: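 EC50 values derive from 4PL curve fits of cAMP (AlphaScreen) in lysates of RAMP-naive COS7 cells stably carrying hCTR2 plus hRAMP3. Peptide dilution series were applied for 15 min at 37 °C in pH 7.4 Tyrode buffer containing 100 µM IBMX and 0.1% casein.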

[3] = target: T2, human calcitonin receptor (hCTR2) (Homo sapiens, UniProt P30988); experiment: hCTR2 cAMP assay (AlphaScreen) in COS7 cells; assay type: cell-based; details: cAMP induction, COS7 cells expressing hCTR2; Table 1; read-out: hCTR2 EC50
T2 construct: expressed in transfected cells
T2 sequence (P30988 25-474): T1 sequence (P30988 25-474)
In short: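 cAMP induction, read by AlphaScreen after lysis, gives EC50 values via 4PL curve fitting. Peptides were applied at rising concentrations for 15 min at 37 °C, with IBMX and 0.1% casein in HEPES-buffered Tyrode pH 7.4, to COS7 cells (no endogenous RAMPs) stably expressing human CTR2.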

| SMILES | Normalized purity after 7 days, 40° C., pH 4 [1] | Normalized purity after 7 days, 40° C., pH 7.5 [1] | Normalized purity after 7 days, 40° C., pH 9 [1] | EC50 [2] [pM] | EC50 [3] [pM] | Normalized purity after 7 days, 40° C., pH 6 [1] |
| --- | --- | --- | --- | --- | --- | --- |
| CC[C@H](C)[C@@H](C(=O)N[C@@H](CC(C)C)C(=O)N[C@@H](CO)C(=O)N[C@@H](CO)C(=O)N[C@H](C(=O)N[C@@H](CCC(=O)O)C(=O)N[C@H](C(=O)NCC(=O)N[C@@H](CO)C(=O)N[C@@H](CO)C(=O)N[C@H](C(=O)N1C[C@H](O)C[C@H]1C(N)=O)[C@@H](C)O)C(C)C)[C@@H](C)O)N(C)C(=O)[C@H](C)NC(=O)CN(C)C(=O)[C@H](Cc1ccccc1)NC(=O)[C@H](CO)NC(=O)[C@H](CO)NC(=O)[C@H](CCCNC(=N)N)NC(=O)[C@H](CC(N)=O)NC(=O)[C@H](CC(C)C)NC(=O)[C@H](Cc1ccccc1)NC(=O)[C@H](Cc1c[nH]cn1)NC(=O)[C@H](C)NC(=O)[C@H](CC(C)C)NC(=O)[C@H](CCCNC(=N)N)NC(=O)[C@H](CCC(=O)O)NC(=O)[C@@H](NC(=O)[C@H](C)NC(=O)[C@@H]1CSSC[C@H](NC(=O)[C@H](CCCNC(=N)N)NC(=O)CC[C@H](NC(=O)CCCCCCCCCCCCCCCCCCC(=O)O)C(=O)O)C(=O)NCC(=O)N[C@@H]([C@@H](C)O)C(=O)N[C@@H](C)C(=O)N[C@@H]([C@@H](C)O)C(=O)N1)[C@@H](C)O [Compound 29, [19CD]-isoGlu-R-C( )-GTAT-C( )-ATERLAHFLNRSSF-Gly(Me)-A-Ile(Me)-LSSTEVGSST-Hyp-NH2] ({C20 diacid-γGlu}-RCGTATCATERLAHFLNRSSF[Sar]A[NMeI]LSSTEVGSST[Hyp]-NH2; disulfide 2-7) | A (A = >90%) | B (B = 70-90%) | B (B = 70-90%) | 120 | 90 |  |
| CC[C@H](C)[C@@H](C(=O)N[C@@H](CC(C)C)C(=O)N[C@@H](CO)C(=O)N[C@@H](CO)C(=O)N[C@H](C(=O)N[C@@H](CCC(=O)O)C(=O)N[C@H](C(=O)NCC(=O)N[C@@H](CO)C(=O)N[C@@H](CO)C(=O)N[C@H](C(=O)N1C[C@H](O)C[C@H]1C(N)=O)[C@@H](C)O)C(C)C)[C@@H](C)O)N(C)C(=O)[C@H](C)NC(=O)CN(C)C(=O)[C@H](Cc1ccccc1)NC(=O)[C@H](CO)NC(=O)[C@H](CO)NC(=O)[C@H](CCCNC(=N)N)NC(=O)[C@@H](NC(=O)[C@H](CC(C)C)NC(=O)[C@H](Cc1ccccc1)NC(=O)[C@H](CC(=O)O)NC(=O)[C@H](C)NC(=O)[C@H](CC(C)C)NC(=O)[C@H](CCCNC(=N)N)NC(=O)[C@H](CCC(=O)O)NC(=O)[C@@H](NC(=O)[C@H](C)NC(=O)[C@@H]1CSSC[C@H](NC(=O)[C@H](CCCNC(=N)N)NC(=O)CC[C@H](NC(=O)CCCCCCCCCCCCCCCCCCC(=O)O)C(=O)O)C(=O)NCC(=O)N[C@@H]([C@@H](C)O)C(=O)N[C@@H](C)C(=O)N[C@@H]([C@@H](C)O)C(=O)N1)[C@@H](C)O)[C@@H](C)O [Compound 41, [19CD]-isoGlu-R-C( )-GTAT-C( )-ATERLADFLTRSSF-Gly(Me)-A-Ile(Me)-LSSTEVGSST-Hyp-NH2] ({C20 diacid-γGlu}-RCGTATCATERLADFLTRSSF[Sar]A[NMeI]LSSTEVGSST[Hyp]-NH2; disulfide 2-7) | B (B = 70-90%) | A (A = >90%) | A (A = >90%) | 340 | 150 | A (A = >90%) |
| CC[C@H](C)[C@@H](C(=O)N[C@@H](CC(C)C)C(=O)N[C@@H](CO)C(=O)N[C@@H](CO)C(=O)N[C@H](C(=O)N[C@@H](CCC(=O)O)C(=O)N[C@H](C(=O)NCC(=O)N[C@@H](CO)C(=O)N[C@@H](CO)C(=O)N[C@H](C(=O)N1C[C@H](O)C[C@H]1C(N)=O)[C@@H](C)O)C(C)C)[C@@H](C)O)N(C)C(=O)[C@H](C)NC(=O)CN(C)C(=O)[C@H](Cc1ccccc1)NC(=O)[C@H](CO)NC(=O)[C@H](CO)NC(=O)[C@H](CCCNC(=N)N)NC(=O)[C@@H](NC(=O)[C@H](CC(C)C)NC(=O)[C@H](Cc1ccccc1)NC(=O)[C@H](CCCC(=O)O)NC(=O)[C@H](C)NC(=O)[C@H](CC(C)C)NC(=O)[C@H](CCCNC(=N)N)NC(=O)[C@H](CCC(=O)O)NC(=O)[C@@H](NC(=O)[C@H](C)NC(=O)[C@@H]1CSSC[C@H](NC(=O)[C@H](CCCNC(=N)N)NC(=O)CC[C@H](NC(=O)CCCCCCCCCCCCCCCCCCC(=O)O)C(=O)O)C(=O)NCC(=O)N[C@@H]([C@@H](C)O)C(=O)N[C@@H](C)C(=O)N[C@@H]([C@@H](C)O)C(=O)N1)[C@@H](C)O)[C@@H](C)O [Compound 43, [19CD]-isoGlu-R-C( )-GTAT-C( )-ATERLA-Aad-FLTRSSF-Gly(Me)-A-Ile(Me)-LSSTEVGSST-Hyp-NH2] ({C20 diacid-γGlu}-RCGTATCATERLA[Aad]FLTRSSF[Sar]A[NMeI]LSSTEVGSST[Hyp]-NH2; disulfide 2-7) | A (A = >90%) | A (A = >90%) | A (A = >90%) | 350 | 220 | A (A = >90%) |
| CC[C@H](C)[C@@H](C(=O)N[C@@H](CC(C)C)C(=O)N[C@@H](CO)C(=O)N[C@@H](CO)C(=O)N[C@H](C(=O)N[C@@H](CCC(=O)O)C(=O)N[C@H](C(=O)NCC(=O)N[C@@H](CO)C(=O)N[C@@H](CC(N)=O)C(=O)N[C@H](C(=O)N1CCC[C@H]1C(N)=O)[C@@H](C)O)C(C)C)[C@@H](C)O)N(C)C(=O)[C@H](C)NC(=O)CN(C)C(=O)[C@H](Cc1ccccc1)NC(=O)[C@H](CO)NC(=O)[C@H](CO)NC(=O)[C@H](CCCNC(=N)N)NC(=O)[C@H](CCC(N)=O)NC(=O)[C@H](CC(C)C)NC(=O)[C@H](Cc1ccccc1)NC(=O)[C@H](CC(=O)O)NC(=O)[C@H](C)NC(=O)[C@H](CC(C)C)NC(=O)[C@H](CCCNC(=N)N)NC(=O)[C@H](CCC(N)=O)NC(=O)[C@@H](NC(=O)[C@H](C)NC(=O)[C@@H]1CSSC[C@H](NC(=O)[C@H](CCCNC(=N)N)NC(=O)CC[C@H](NC(=O)CCCCCCCCCCCCCCCCCCC(=O)O)C(=O)O)C(=O)N[C@@H](CC(N)=O)C(=O)N[C@@H]([C@@H](C)O)C(=O)N[C@@H](C)C(=O)N[C@@H]([C@@H](C)O)C(=O)N1)[C@@H](C)O [Compound 65, [19CD]-isoGlu-R-C( )-NTAT-C( )-ATQRLADFLQRSSF-Gly(Me)-A-Ile(Me)-LSSTEVGSNTP-NH2] ({C20 diacid-γGlu}-RCNTATCATQRLADFLQRSSF[Sar]A[NMeI]LSSTEVGSNTP-NH2; disulfide 2-7) | A (A = >90%) | A (A = >90%) | A (A = >90%) | 260 | 140 | A (A = >90%) |
